Results: patent publication US10570179B2, “Substituted urea depsipeptide analogs as activators of the CLPP endopeptidase” (priority 2016, dated 2020)
Values after ≈ are worked out from the molar mass of the structure shown. Where two headings read alike, the source gives them in different places. Numbered stars: 1 amine (or outer) side, 2 acyl side, 3 side chain; on linkers, the order of the positions; unused ones are H or OH. Bridge positions count the residues as written; N and C are the ends. Square brackets hold non-standard residues; d marks the D form. Peptide text beside a SMILES is read from it. * marks the point of attachment. X5 = O=C([C@@H]1C[C@@H](OP(=O)(O)O)CN1[*:1])[*:2]; Phe(3,5-Me2) = Cc1cc(C)cc(C[C@H](N)C(=O)O)c1; Phe(3-Me) = Cc1cccc(C[C@H](N)C(=O)O)c1; X4 = O=C1CN([*:1])[C@H](C(=O)[*:2])CN1; NH(4-Cl-2-F-phenyl) = Fc1cc(Cl)ccc1N*; Pro(4R-Me) = C[C@H]1CN[C@H](C(=O)O)C1; X1 = O=C([C@@H]1CSCCN1[*:1])[*:2]; Hyp = O=C(O)[C@@H]1C[C@@H](O)CN1; NH(4-Me-phenyl) = Cc1ccc(N*)cc1; aThr = C[C@H](O)[C@H](N)C(=O)O; Pip = O=C(O)[C@@H]1CCCCN1; CO = O=C([*:1])[*:2]

How the values were obtained:
Solubility determination = format: physicochemical; details: for solubility kinetic at 10 min: 22 °C, aqueous buffer, kinetic from dmso stock
Method: Test compounds were synthesized and supplied by the Department of Chemical Biology and Therapeutics at St. Jude Children's Research Hospital (Memphis, Tenn.). LC-MS chromasolv grade acetonitrile (ACN) was purchased from Fisher Scientific (Loughborough, UK). LC-MS chromasolv grade formic acid was obtained from Sigma-Aldrich (St. Louis, Mo.). Milli-Q water as an ultrapure laboratory grade water was used in aqueous mobile phase.
Chromatographic separation was performed on an Acquity UPLC BEH C18 1.7 μm, 2.1×50 mm column (Waters Corporation, Milford, Mass.) using an Acquity ultra performance liquid chromatography system. The total flow rate was 0.9 mL/min. The sample injection volume was 10 μL. The UPLC column was maintained at 60° C. and the gradient program started at 90% A (0.1% formic acid in MilliQ H2O), changed to 70% A over 0.2 min, to 95% B (0.1% formic acid in ACN) over 1.4 minutes, held for 0.35 minutes, then to 90% A over 0.05 minutes.
Mass data was acquired with an Acquity SQD Mass Spectrometer. The mass spectrometer was operated in positive-ion mode with electrospray ionization. The conditions were as follows: capillary voltage 3.5 kV, cone voltage 30 V, source temperature 150° C., desolvation temperature 350° C., desolvation gas 500 L/hr, cone gas 25 L/hr. Data were acquired using Masslynx v. 4.1 and analyzed using the Quanlynx software suite. A full scan range from m/z=100-1000 in 0.2 s was used to acquire MS data. Both UV and Single ion recording mass spectrometry were used to determine the quantification of the samples.
Stock solutions were prepared by dissolving compounds into DMSO to yield a concentration of 10 mM. Stock solutions were stored at room temperature.
Calibration standards were made by adding stock solutions to DMSO for final concentrations of compounds at concentration of 100, 25, 6.25, 1.563, 0.391 and 0.098 μM.
Solubility test samples were made by adding stock solutions to 200 μL, of DPBS for final concentrations of compounds at 100 μM in a 96-well analytical plate (300 μL, maximum volume in each well). Samples were tested in triplicates. The plate was sealed, shaken at 600 rpm for 10 minutes, and then was centrifuged at 4000 rpm for 20 min at 22° C. 100 μL, of the supernatant was transferred to a new analytical 96-well plate and 10 μL, was injected onto the LCMS system.
Two calibration curves for solubility test samples were analyzed during the quantitation process. The linear regression of test compound peak areas was weighted by 1/x^2. […] Coefficient of determination (R^2) was used to evaluate the linearity of each calibration curve.

Plasma stability assay [1] = format: in vitro ADME, mouse
Method: (§1) The plasma stability property of early drug discovery compounds can influence the in vivo efficacy of the test compounds/drugs. Human and/or mouse plasma degradation is determined using multiple time points to monitor the rate of disappearance of the parent compound during incubation.
(§2) Sample preparation for plasma stability was modified from Di et al. (2005) Int. J. Pharm. 297(1-2): 110-119. A set of incubation times of 0, 3, 24, and 48 hour were used. DMSO stock solutions of test compounds were prepared at 10 mM concentration. 1.8 μL of each test compound was each added directly to 1.8 mL of human/mouse plasma to get the final concentration of 10 μM. This compound/matrix was mixed and 70 μL was transferred to 8 time points plates (each in triplicate wells). For the Time 0 plate, 210 μL of cold acetonitrile with internal standard (4 μg/mL warfarin) was added to each well and no incubation needed. For other seven time points' plate, the plate was incubated at 37° C. for required time, followed by quenching of the reaction by adding 210 μL of cold acetonitrile with internal standard (4 μg/ml warfarin) to each well. All of the plates were sealed and mixed well at 600 rpm for 10 min and were centrifuged at 4000 rpm for 20 min. The supernatants (120 μL) were transferred to analytical plates for analysis by LCMS. Conditions for Waters ACQUITY-UPLC-MS-UV system was described separately. The plasma stability was evaluated via the half-life from least-squares fit of the multiple time points based on first-order kinetics.

S. aureus ΔClpP = test: Minimal inhibitory concentration, microbroth dilution; format: cell-based, Staphylococcus aureus; details: MIC; ClpP inactivated
Procedure, shortened: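 Susceptibility testing used the CLSI dilution standard, with bacteria at ~10^5 cfu/mL exposed to a two-fold compound series beginning at 200 μM final. The endpoint is the lowest concentration showing no growth after overnight incubation (37 °C, aerobic).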

Plasma stability assay [2] = format: in vitro ADME, human
Method: as §1, §2

[3] = solubility in DPBS, 100 μM test samples, LCMS, read-out: LCMS
[4] = plasma stability half-life, mouse plasma, 37° C.
[5] = plasma stability half-life, human plasma, 37° C.

Row | Compound | μsol (μM) (Solubility determination) | solubility kinetic at 10 min (Solubility determination) [µM] | Mouse (Plasma stability assay [1]; mouse, 10 μM) [h] | Minimal Inhibitory Concentrations (μM) S. aureus ΔClpP (S. aureus ΔClpP) [µM] | Human (Plasma stability assay [2]; human, 10 μM) [h] | solubility kinetic at 10 min (Solubility determination; [3]) [µM] | μsol (μM) (Solubility determination; solubility) [µM] | Mouse (Plasma stability assay [1]; [4]) [h] | Human (Plasma stability assay [2]; [5]) [h] | μsol (μg/mL) (Solubility determination; solubility) [µg/mL] | Mouse (hr) (Plasma stability assay [1]; [4]) | Human (hr) (Plasma stability assay [2]; [5])
1 | Cc1cccc(C[C@H](NC(=O)Nc2ccc(Cl)cc2F)C(=O)N[C@@H]2C(=O)N3CCC[C@H]3C(=O)N3CC(=O)NC[C@H]3C(=O)N[C@@H](C)C(=O)N3C[C@H](C)C[C@H]3C(=O)O[C@H]2C)c1 [Compound 20, (S)-2-(3-(4-CHLORO-2-FLUOROPHENYL)UREIDO)-3-(M-TOLYL)-N-((6AS,12S,13S,15AS,17R,21S,23AS)-13,17,21-TRIMETHYL-3,6,11,15,20,23-HEXAOXOOCTADECAHYDRO-2H,6H,11H,15H-PYRAZINO[2,1-I]DIPYRROLO[2,1-C:2′,1′-L][1]OXA[4,7,10,13]TETRAAZACYCLOHEXADECIN-12-YL)PROPANAMIDE] ({NH(4-Cl-2-F-phenyl)-CO}-[Phe(3-Me)][aThr]P[X4]A[Pro(4R-Me)]; ester 2-C) | 29.9 ± 1.5 µM | 34.4 ± 1.1 (≈ 28.9 µg/mL) | 13.2 | >20 | 14.0 |  |  |  |  |  |  | 
2 | Cc1cccc(C[C@H](NC(=O)Nc2ccc3c(c2)OCCO3)C(=O)N[C@H]2COC(=O)[C@@H]3C[C@@H](C)CN3C(=O)[C@H](C)NC(=O)[C@@H]3CCCCN3C(=O)[C@@H]3CCCN3C2=O)c1 [Compound 22, (S)-2-(3-(2,3-DIHYDROBENZO[B][1,4]DIOXIN-6-YL)UREIDO)-N-((2R,6S,8AS,14AS,20S,23AS)-2,6-DIMETHYL-5,8,14,19,23-PENTAOXOOCTADECAHYDRO-1H,5H,14H,19H-PYRIDO[2,1-I]DIPYRROLO[2,1-C:2′,1′-L][1]OXA[4,7,10,13]TETRAAZACYCLOHEXADECIN-20-YL)-3-(M-TOLYL)PROPANAMIDE] | 7.6 ± 0.3 µM | 3.3 ± 0.2 (≈ 2.69 µg/mL) | 46.15 | >20 | >50 |  |  |  |  |  |  | 
3 | Cc1cccc(C[C@H](NC(=O)Nc2ccc(Cl)cc2F)C(=O)N[C@H]2COC(=O)[C@@H]3C[C@@H](C)CN3C(=O)[C@H](C)NC(=O)[C@@H]3CCCCN3C(=O)[C@@H]3CCCN3C2=O)c1 [Compound 8, (S)-2-(3-(4-CHLORO-2-FLUOROPHENYL)UREIDO)-N-((2R,6S,8AS,14AS,20S,23AS)-2,6-DIMETHYL-5,8,14,19,23-PENTAOXOOCTADECAHYDRO-1H,5H,14H,19H-PYRIDO[2,1-I]DIPYRROLO[2,1-C:2′,1′-L][1]OXA[4,7,10,13]TETRAAZACYCLOHEXADECIN-20-YL)-3-(M-TOLYL)PROPANAMIDE] | 8.8 ± 0.7 µM | 2.79 ± 0.5 (≈ 2.26 µg/mL) | >50 | >20 | 34.37 |  |  |  |  |  |  | 
4 | Cc1cccc(C[C@H](NC(=O)Nc2ccc(Cl)cc2F)C(=O)N[C@@H]2C(=O)N3C[C@H](OP(=O)(O)O)C[C@H]3C(=O)N3CCCC[C@H]3C(=O)N[C@@H](C)C(=O)N3C[C@H](C)C[C@H]3C(=O)O[C@H]2C)c1 [Compound 29, (2R,6S,8AS,14AS,16R,20S,21S,23AS)-20-((S)-2-(3-(4-CHLORO-2-FLUOROPHENYL)UREIDO)-3-(M-TOLYL)PROPANAMIDO)-2,6,21-TRIMETHYL-5,8,14,19,23-PENTAOXOOCTADECAHYDRO-1H,5H,14H,19H-PYRIDO[2,1-I]DIPYRROLO[2,1-C:2′,1′-L][1]OXA[4,7,10,13]TETRAAZACYCLOHEXADECIN-16-YL DIHYDROGEN PHOSPHATE] ({NH(4-Cl-2-F-phenyl)-CO}-[Phe(3-Me)][aThr][X5][Pip]A[Pro(4R-Me)]; ester 2-C) |  |  |  | >20 |  | 66.6 ± 6.6 | 58.7 ± 8.7 | 102.25 | >50 |  |  | 
5 | Cc1cccc(C[C@H](NC(=O)Nc2ccc(Cl)cc2F)C(=O)N[C@@H]2C(=O)N3C[C@H](O)C[C@H]3C(=O)N3CCSC[C@H]3C(=O)N[C@@H](C)C(=O)N3C[C@H](C)C[C@H]3C(=O)O[C@H]2C)c1 [Compound 41, (S)-2-(3-(4-CHLORO-2-FLUOROPHENYL)UREIDO)-N-((6AS,8R,12S,13S,15AS,17R,21S,23AR)-8-HYDROXY-13,17,21-TRIMETHYL-6,11,15,20,23-PENTAOXOOCTADECAHYDRO-6H,11H,15H-DIPYRROLO[2,1-C:2′,1′-L][1,4]THIAZINO[3,4-I][1]OXA[4,7,10,13]TETRAAZACYCLOHEXADECIN-12-YL)-3-(M-TOLYL)PROPANAMIDE] ({NH(4-Cl-2-F-phenyl)-CO}-[Phe(3-Me)][aThr][Hyp][X1]A[Pro(4R-Me)]; ester 2-C) | 2.4 ± .40 µM | 1.4 ± 0.4 (≈ 1.2 µg/mL) | >50 | >20 | >50 |  |  |  |  |  |  | 
6 | Cc1ccc(NC(=O)N[C@@H](Cc2cc(C)cc(C)c2)C(=O)N[C@@H]2C(=O)N3CCC[C@H]3C(=O)N3CCCC[C@H]3C(=O)N[C@@H](C)C(=O)N3C[C@H](C)C[C@H]3C(=O)O[C@H]2C)cc1 [Compound 2, (S)-3-(3,5-DIMETHYLPHENYL)-2-(3-(P-TOLYL)UREIDO)-N-((2R,6S,8AS,14AS,20S,21S,23AS)-2,6,21-TRIMETHYL-5,8,14,19,23-PENTAOXOOCTADECAHYDRO-1H,5H,14H,19H-PYRIDO[2,1-I]DIPYRROLO[2,1-C:2′,1′-L][1]OXA[4,7,10,13]TETRAAZACYCLOHEXADECIN-20-YL)PROPANAMIDE] ({NH(4-Me-phenyl)-CO}-[Phe(3,5-Me2)][aThr]P[Pip]A[Pro(4R-Me)]; ester 2-C) |  |  |  | 200 |  | 6.7 (≈ 5.36 µg/mL) | 10.4 |  |  | 8.3 | >>48 hr | >>48 hr
7 | Cc1ccc(NC(=O)N[C@@H](Cc2cccc(C)c2)C(=O)N[C@@H]2C(=O)N3C[C@H](O)C[C@H]3C(=O)N3CCSC[C@H]3C(=O)N[C@@H](C)C(=O)N3C[C@H](C)C[C@H]3C(=O)O[C@H]2C)cc1 [Compound 42, (S)—N-((6AS,8R,12S,13S,15AS,17R,21S,23AR)-8-HYDROXY-13,17,21-TRIMETHYL-6,11,15,20,23-PENTAOXOOCTADECAHYDRO-6H,11H,15H-DIPYRROLO[2,1-C:2′,1′-L][1,4]THIAZINO[3,4-I][1]OXA[4,7,10,13]TETRAAZACYCLOHEXADECIN-12-YL)-3-(M-TOLYL)-2-(3-(P-TOLYL)UREIDO)PROPANAMIDE] ({NH(4-Me-phenyl)-CO}-[Phe(3-Me)][aThr][Hyp][X1]A[Pro(4R-Me)]; ester 2-C) |  |  |  | >20 |  | 29.2 ± 9.2 (≈ 23.9 µg/mL) | 29.7 ± 9.7 | >50 | >50 |  |  | 
